According to patent publication US20210122763A1, “OGA INHIBITOR COMPOUNDS” (Janssen Pharmaceutica NV, priority 2018, published 2021):

Assays:
[1] = biological target: T1, OGA (Mus musculus, UniProt Q9EQQ9); assay: Ex vivo OGA occupancy assay using [3H]-ligand; type: in vivo; conditions: male NMRI or C57Bl6j mice, p.o., 24 h after administration, forebrain area of brain sections, 3 nM [3H]-ligand, normalised to vehicle; for receptor occupancy at 25 mg/kg: mouse, po, read-out: Occupancy (% +/− sd)
T1 construct: Brains were immediately removed from the skull; from tissue; host or cells: mouse brain (forebrain area of sagittal sections)
T1 sequence (Q9EQQ9 1-916): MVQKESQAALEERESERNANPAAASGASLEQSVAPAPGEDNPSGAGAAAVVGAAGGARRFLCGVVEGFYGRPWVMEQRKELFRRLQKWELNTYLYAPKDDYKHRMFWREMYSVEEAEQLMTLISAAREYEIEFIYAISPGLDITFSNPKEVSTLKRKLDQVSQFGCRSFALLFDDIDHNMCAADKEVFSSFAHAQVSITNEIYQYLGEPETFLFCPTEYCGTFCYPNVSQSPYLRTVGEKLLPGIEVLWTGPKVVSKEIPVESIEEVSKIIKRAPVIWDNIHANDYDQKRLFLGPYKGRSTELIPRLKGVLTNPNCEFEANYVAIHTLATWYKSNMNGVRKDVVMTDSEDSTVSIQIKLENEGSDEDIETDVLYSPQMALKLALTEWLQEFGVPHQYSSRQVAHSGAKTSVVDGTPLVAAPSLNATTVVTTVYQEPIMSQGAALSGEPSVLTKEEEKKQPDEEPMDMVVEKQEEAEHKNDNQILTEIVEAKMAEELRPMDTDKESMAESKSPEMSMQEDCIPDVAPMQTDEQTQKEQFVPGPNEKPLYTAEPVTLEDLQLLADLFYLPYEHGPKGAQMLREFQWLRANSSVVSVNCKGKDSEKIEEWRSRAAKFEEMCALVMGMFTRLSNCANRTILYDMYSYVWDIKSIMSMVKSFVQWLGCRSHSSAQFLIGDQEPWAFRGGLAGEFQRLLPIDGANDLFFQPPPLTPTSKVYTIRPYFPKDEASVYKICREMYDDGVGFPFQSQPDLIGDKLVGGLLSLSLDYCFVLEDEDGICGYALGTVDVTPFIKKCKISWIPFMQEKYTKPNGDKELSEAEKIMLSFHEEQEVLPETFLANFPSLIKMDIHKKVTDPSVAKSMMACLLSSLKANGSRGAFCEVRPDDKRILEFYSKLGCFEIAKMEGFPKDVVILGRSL
Protocol: 3) Ex Vivo OGA Occupancy Assay Using [3H]-Ligand Drug Treatment and Tissue Preparation
Male NMRI or C57Bl6j mice were treated by oral (p.o.) administration of vehicle or compound. Animals were sacrificed 24 hours after administration. Brains were immediately removed from the skull, hemispheres were separated and the right hemisphere, for ex vivo OGA occupancy assay, was rapidly frozen in dry-ice cooled 2-methylbutane (−40° C.). […] sagittal sections were cut using a Leica CM 3050 cryostat-microtome (Leica, Belgium), thaw-mounted on microscope slides (SuperFrost Plus Slides, Thermo Fisher Scientific) and stored at −20° C. until use. After thawing, sections were dried under a cold stream of air. The sections were not washed prior to incubation. The 10 minutes incubation with 3 nM [^3H]-ligand was rigorously controlled. All brain sections (from compound-treated and vehicle-treated animals) were incubated in parallel. After incubation, the excess of [^3H]-ligand was washed off in ice-cold buffer (PBS 1× and 1% BSA) 2 times 10 minutes, followed by a quick dip in distilled water. The sections were then dried under a stream of cold air.
QUANTITATIVE AUTORADIOGRAPHY AND DATA ANALYSIS Radioactivity in the forebrain area of brain slices was measured using a P-imager with M3 vision analysis software (Biospace Lab, Paris). Specific binding was calculated as the difference between total binding and non-specific binding measured in Thiamet-G (10 μM) treated sections. Specific binding in sections from drug treated animals was normalised to binding in sections from vehicle treated mice to calculate percentage of OGA occupancy by the drug.

Occupancy (% +/− sd) ([1]; 25 mg/kg)	receptor occupancy at 25 mg/kg [1]	melting point	Structure (SMILES)
77.67 +/− 10.5%	84.3%		Cc1cc(OC2CCN([C@H](C)c3nc4c(cc3F)OCCO4)CC2)cc(C)n1 (single isomer, unassigned) [Compound 148]
	20%	127.82 °C	Cc1ncc(OC2CCN(C(C)c3nc4c(cc3F)CCO4)CC2)cn1 (stereo not drawn) [Compound 95]
	94.7%		Cc1cc(OC2CCN([C@H](C)c3nc4c(cc3F)CCO4)CC2)cc(C)n1 (single isomer, unassigned) [Compound 144]
	97%		Cc1cc(OC2CCN([C@@H](C)c3nc4nc(C)sc4cc3F)CC2)cc(C)n1 (single isomer, unassigned) [Compound 83]
